Results reported in paper PMC3509583, “Molecular Mechanisms of Pharmaceutical Drug Binding into Calsequestrin” (International Journal of Molecular Sciences, 2012).
Read-outs that look alike come from different tables or passages of the source.

Experiments:
[1] = molecular target: T1, human cardiac calsequestrin (hCASQ2) (Homo sapiens, UniProt O14958); parameters: method as in PMID 20713040; conditions: cited from earlier work; for binding class based on ITC dissociation constants (Kd): hCASQ2, drugs grouped as strong, moderate or poor binders; for Kd: hCASQ2, ITC, previous studies, read-out: experimental dissociation constant (Kd)
T1 sequence (O14958 20-399): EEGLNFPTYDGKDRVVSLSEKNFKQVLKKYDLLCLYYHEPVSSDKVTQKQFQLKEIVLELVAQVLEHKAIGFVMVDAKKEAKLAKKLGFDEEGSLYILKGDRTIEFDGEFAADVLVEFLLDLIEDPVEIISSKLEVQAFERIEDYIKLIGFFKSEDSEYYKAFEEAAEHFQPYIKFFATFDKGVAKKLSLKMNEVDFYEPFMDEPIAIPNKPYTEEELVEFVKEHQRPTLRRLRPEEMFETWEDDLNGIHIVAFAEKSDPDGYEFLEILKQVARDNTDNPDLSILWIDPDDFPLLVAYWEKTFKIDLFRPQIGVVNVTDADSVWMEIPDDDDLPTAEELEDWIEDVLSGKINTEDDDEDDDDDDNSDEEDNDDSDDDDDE

[2] = molecular target: T1, human cardiac calsequestrin (hCASQ2); experiment: Isothermal titration calorimetry (ITC) of drug binding to hCASQ2, with or without caffeine; conditions: hCASQ2, titration in the absence of caffeine (Supplemental Fig. 2); read-out: Dissociation constant (Kd)
Description: We performed ITC assays to check the predicted competition between the natural compounds (CAF, EGC, and EGCG) and tested synthetic drugs.
ITC experiments were conducted using a previous protocol, with slight modifications. The protein and drug concentrations were kept at 50 μM and 2 mM, respectively, while the CAF concentration was allowed to vary between 0 and 5 mM for different drugs. […] Origin software (Origin Lab Corp, Northampton, MA, USA) was used to fit the data to a one-site binding model via non-linear least squares regression.

[3] = test system: SR microsomes; parameters: method as in PMID 16141311, PMID 15492117; conditions: concentration- and time-dependent; cited from earlier work

Row | Compound | binding class based on ITC dissociation constants (Kd) [1] | Kd [1] [µM] | Kd [2] [µM] | total SR microsomal Ca2+ content [3]
1 | CN(C)CCC=C1c2ccccc2CCc2ccccc21 [amitriptyline] | moderate | – | – | –
2 | CCOC(=O)C1=C(COCCN)NC(C)=C(C(=O)OC)C1c1ccccc1Cl (stereo not drawn) [amlodipine] | strong | 20.4 | – | –
3 | CN(C)CCCN1c2ccccc2Sc2ccc(Cl)cc21 [chlorpromazine] | poor | – | 102 | –
4 | COc1cccc2c1C(=O)c1c(O)c3c(c(O)c1C2=O)C[C@@](O)(C(C)=O)C[C@@H]3O[C@H]1C[C@H](N)[C@H](O)[C@H](C)O1 [daunomycin] | strong | 20.3 | – | –
5 | COc1ccc([C@@H]2Sc3ccccc3N(CCN(C)C)C(=O)[C@@H]2OC(C)=O)cc1 [diltiazem] | moderate | – | 41 | –
6 | COc1cccc2c1C(=O)c1c(O)c3c(c(O)c1C2=O)C[C@@](O)(C(=O)CO)C[C@@H]3O[C@H]1C[C@H](N)[C@H](O)[C@H](C)O1 [doxorubicin] | strong | 14.4 | – | –
7 | CN[C@@H](C)[C@H](O)c1ccccc1 [ephedrine] | poor | – | – | –
8 | CC(C)NCC(O)c1ccc(O)c(O)c1 (stereo not drawn) [isoproterenol] | poor | – | – | –
9 | COCCc1ccc(OCC(O)CNC(C)C)cc1 (stereo not drawn) [metoprolol] | poor | – | – | –
10 | Clc1ccc(COC(Cn2ccnc2)c2ccc(Cl)cc2Cl)c(Cl)c1 (stereo not drawn) [miconazole] | poor | – | – | –
11 | CNCCC=C1c2ccccc2CCc2ccccc21 [nortriptyline] | moderate | – | – | –
12 | CC(CN1c2ccccc2Sc2ccccc21)N(C)C (stereo not drawn) [promethazine] | moderate | – | – | –
13 | CCCNCC(O)COc1ccccc1C(=O)CCc1ccccc1 (stereo not drawn) [propafenone] | poor | – | – | –
14 | CSc1ccc2c(c1)N(CCC1CCCCN1C)c1ccccc1S2 (stereo not drawn) [thioridazine] | strong | – | 22 | –
15 | CN1CCN(CCCN2c3ccccc3Sc3ccc(C(F)(F)F)cc32)CC1 [trifluoperazine] | strong | 18.2 | 36 | significantly reduce
